Measurements: PMC12920294, “Optimizing uPAR-targeting radiopeptides for improved tissue distribution: progress towards radionuclide therapy” (European Journal of Nuclear Medicine and Molecular Imaging, 2025)
Marks after values point to notes of the source that are not given here.

Tests used:
human serum albumin = human serum albumin (Homo sapiens, UniProt P02768); assay type: in vitro ADME; design: tissue Stiftung Blutspende SRK Aargau-Solothurn, Switzerland; host or cells: human blood plasma
Procedure: (§1) The albumin-binding properties of the radiopeptides in mouse and human blood plasma were determined using an ultrafiltration assay with Amicon centrifugal filters (cut-off of 10 kDa; Merck Millipore) as previously reported (Supplementary Material). A fixed amount of the respective radiopeptide (~ 300 kBq, 15 µL, 6 pmol) was added to a defined volume (150 µL) of mouse and human blood plasma dilutions to obtain [mouse serum albumin]-to-[radiopeptide] molar concentration ratios of 0.01‒12,500 and [human serum albumin]-to-[radiopeptide] molar concentration ratios of 0.01‒20,000. The data were analyzed using a semi-logarithmic Hill plot with the maximum binding set as 100% using GraphPad Prism software (version 10.1.1). The half-maximum binding (B50 values) of each radiopeptide was expressed as relative values using the inverse ratios with the value of [^177Lu]Lu-uPAR-11 set as 1.0. […] The samples were incubated at 37 °C for 30 min. Ice-cold PBS (150 µL, pH 7.4) was added before loading the blood plasma samples on Amicon centrifugal filters (cut-off of 10 kDa; Merck Millipore) followed by centrifugation (14000 rcf, 4 °C, 30 min) to allow the separation of the plasma protein-bound from the unbound (free) fractions of each sample. The inserts of the filter devices were inverted and centrifuged at 200 rcf for 3 min to recover the protein-bound radiopeptide. The activity of the protein-bound fraction was measured using a γ-counter (Wallac Wizard 1480, PerkinElmer). The activity in the filtrate and filter unit was counted in the γ-counter and the counts were combined, assuming that the fraction retained in the filter membrane was not bound to proteins. The protein-bound fraction was expressed as percentage of the whole activity (i.e. plasma protein-bound activity, activity measured in the filtrate and activity measured in the filter (set as 100%)). The data were analyzed using a semi-logarithmic plot assuming a maximum binding of 100%. The Hill equation was fitted to the data points, and the half-maximum binding (B50) was determined based on the obtained binding curves using GraphPad Prism software (version 10.1.1). To quantitatively express and compare the albumin-binding properties of the radiopeptides, the relative albumin-binding affinity was expressed as the inverse half-maximal-binding (B50) of the respective radioligand to that of [^177Lu]Lu-uPAR-11, which was set as 1.0. The results were presented as the value obtained from the average curve from 3 independent experiments.

mouse serum albumin = biological target: T1, mouse serum albumin (Mus musculus, UniProt P07724); assay type: in vitro ADME
T1 construct: tissue Rockland Immunochemicals Inc., USA Lot: 32321; host or cells: mouse blood plasma
T1 sequence (P07724 25-608): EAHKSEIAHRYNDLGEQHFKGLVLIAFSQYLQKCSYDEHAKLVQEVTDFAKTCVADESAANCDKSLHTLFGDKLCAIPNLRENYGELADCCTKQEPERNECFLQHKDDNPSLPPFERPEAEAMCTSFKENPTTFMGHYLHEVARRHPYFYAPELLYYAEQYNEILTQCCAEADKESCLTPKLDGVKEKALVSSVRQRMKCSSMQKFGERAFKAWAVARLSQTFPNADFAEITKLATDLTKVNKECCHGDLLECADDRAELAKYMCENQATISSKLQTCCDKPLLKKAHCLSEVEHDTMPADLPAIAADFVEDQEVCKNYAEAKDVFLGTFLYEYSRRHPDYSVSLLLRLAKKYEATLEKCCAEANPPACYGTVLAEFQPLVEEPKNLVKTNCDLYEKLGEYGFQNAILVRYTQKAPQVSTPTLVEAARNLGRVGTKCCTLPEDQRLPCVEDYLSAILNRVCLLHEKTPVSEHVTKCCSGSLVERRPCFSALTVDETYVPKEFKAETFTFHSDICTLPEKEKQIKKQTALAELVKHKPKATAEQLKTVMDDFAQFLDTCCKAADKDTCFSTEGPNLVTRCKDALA
Procedure: as §1

Chain of human serum albumin (P02768 25-609): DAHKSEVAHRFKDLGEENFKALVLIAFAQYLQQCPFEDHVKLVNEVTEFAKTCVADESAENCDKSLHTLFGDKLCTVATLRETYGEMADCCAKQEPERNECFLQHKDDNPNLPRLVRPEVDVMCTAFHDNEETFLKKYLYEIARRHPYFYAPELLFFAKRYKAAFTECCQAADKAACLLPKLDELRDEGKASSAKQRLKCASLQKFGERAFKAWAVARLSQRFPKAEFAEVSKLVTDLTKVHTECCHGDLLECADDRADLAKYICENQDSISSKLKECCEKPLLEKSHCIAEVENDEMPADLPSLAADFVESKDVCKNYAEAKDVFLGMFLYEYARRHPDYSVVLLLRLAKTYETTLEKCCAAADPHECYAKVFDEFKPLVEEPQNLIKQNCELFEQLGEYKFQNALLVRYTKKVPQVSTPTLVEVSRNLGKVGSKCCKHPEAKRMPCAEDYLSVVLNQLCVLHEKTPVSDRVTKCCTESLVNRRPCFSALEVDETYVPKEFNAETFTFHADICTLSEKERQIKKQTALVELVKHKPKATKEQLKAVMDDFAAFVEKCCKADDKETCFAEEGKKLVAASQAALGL

Row | Inverse relative albumin-binding affinity (human serum albumin) | Weaker affinity to human albumin than [177Lu]Lu-uPAR-02 (human serum albumin) | Weaker affinity to mouse albumin than [177Lu]Lu-uPAR-02 (mouse serum albumin) | Albumin-binding affinity relative to [177Lu]Lu-uPAR-11 (mouse serum albumin) | Albumin-binding properties, relative values (inverse B50 ratio) (mouse serum albumin) | Structure (SMILES)
1 | 1.00^b | 4.6 fold | 3.2 fold | – | – | Cc1ccc(CCCC(=O)NCCOCCOCCOCCOCCC(=O)NCCCC[C@H](NC(=O)CN2CCN(CC(=O)O)CCN(CC(=O)O)CCN(CC(=O)O)CC2)C(=O)N[C@@H](CC(=O)O)C(=O)N[C@@H](CC2CCCCC2)C(=O)N[C@@H](Cc2ccccc2)C(=O)N[C@H](CO)C(=O)N[C@H](CCCNC(=N)N)C(=O)N[C@@H](Cc2ccc(O)cc2)C(=O)N[C@@H](CC(C)C)C(=O)N[C@@H](Cc2c[nH]c3ccccc23)C(=O)N[C@@H](CO)C(N)=O)cc1 [[^177Lu]Lu-uPAR-11, metal not drawn]
2 | 0.50 | – | – | 0.50‒0.77 | 0.66 | Cc1ccc(CCCC(=O)NCCOCCOCCOCCOCCC(=O)NC[C@H](NC(=O)CN2CCN(CC(=O)O)CCN(CC(=O)O)CCN(CC(=O)O)CC2)C(=O)N[C@@H](CC(=O)O)C(=O)N[C@@H](CC2CCCCC2)C(=O)N[C@@H](Cc2ccccc2)C(=O)N[C@H](CO)C(=O)N[C@H](CCCNC(=N)N)C(=O)N[C@@H](Cc2ccc(O)cc2)C(=O)N[C@@H](CC(C)C)C(=O)N[C@@H](Cc2c[nH]c3ccccc23)C(=O)N[C@@H](CO)C(N)=O)cc1 [[^177Lu]Lu-uPAR-14, metal not drawn]
3 | 0.77 | – | – | 0.50‒0.77 | 0.77 | Cc1ccc(CCCC(=O)NCCOCCOCCOCCC(=O)NCCCC[C@H](NC(=O)CN2CCN(CC(=O)O)CCN(CC(=O)O)CCN(CC(=O)O)CC2)C(=O)N[C@@H](CC(=O)O)C(=O)N[C@@H](CC2CCCCC2)C(=O)N[C@@H](Cc2ccccc2)C(=O)N[C@H](CO)C(=O)N[C@H](CCCNC(=N)N)C(=O)N[C@@H](Cc2ccc(O)cc2)C(=O)N[C@@H](CC(C)C)C(=O)N[C@@H](Cc2c[nH]c3ccccc23)C(=O)N[C@@H](CO)C(N)=O)cc1 [[^177Lu]Lu-uPAR-15, metal not drawn]
4 | 0.65 | – | – | 0.50‒0.77 | 0.77 | Cc1ccc(CCCC(=O)NCCOCCOCCOCCOCCC(=O)NCCCC[C@H](NC(=O)CC[C@H](C(=O)O)N2CCN(CC(=O)O)CCN(CC(=O)O)CCN(CC(=O)O)CC2)C(=O)N[C@@H](CC(=O)O)C(=O)N[C@@H](CC2CCCCC2)C(=O)N[C@@H](Cc2ccccc2)C(=O)N[C@H](CO)C(=O)N[C@H](CCCNC(=N)N)C(=O)N[C@@H](Cc2ccc(O)cc2)C(=O)N[C@@H](CC(C)C)C(=O)N[C@@H](Cc2c[nH]c3ccccc23)C(=O)N[C@@H](CO)C(N)=O)cc1 [[^177Lu]Lu-uPAR-17, metal not drawn]
5 | 1.05 | – | – | – | 0.66 | Cc1ccc(CCCC(=O)NCCOCCOCCOCCOCCOCCC(=O)NCCCC[C@H](NC(=O)CN2CCN(CC(=O)O)CCN(CC(=O)O)CCN(CC(=O)O)CC2)C(=O)N[C@@H](CC(=O)O)C(=O)N[C@@H](CC2CCCCC2)C(=O)N[C@@H](Cc2ccccc2)C(=O)N[C@H](CO)C(=O)N[C@H](CCCNC(=N)N)C(=O)N[C@@H](Cc2ccc(O)cc2)C(=O)N[C@@H](CC(C)C)C(=O)N[C@@H](Cc2c[nH]c3ccccc23)C(=O)N[C@@H](CO)C(N)=O)cc1 [[^177Lu]Lu-uPAR-18, metal not drawn]
